The nature of data set [1]: Solubility of gentisate Form 2 of Compound 1 in water, SGF, FaSSIF and FeSSIF after 4 hours at 37 °C (HPLC). The class given is physicochemical. As to the method:
The solubility of a polymorphic form of a gentisate form of Compound 1 was measured in water, simulated gastric fluid (SGF), fasted-state simulated intestinal fluid (FaSSIF), and fed-state simulated intestinal fluid (FeSSIF) after 4 hours and at 37 °C as follows.
The SGF media was prepared by weighing 49.5 mg of NaCl and 25.4 mg of Triton X-100 into a 100-mL volumetric flask. A volume of purified water was added to the flask and the resulting mixture was sonicated until all solids were dissolved. About 1.632 mL of HCl solution (1 M) were then added and sufficient purified water to the target volume and to adjust the pH to 1.8. The solution was then diluted to volume with purified water, mixed well and the pH value was measured to be 1.83.
A FaSSIF buffer was prepared by weighing 340.8 mg of NaH2PO4, 43.0 mg of NaOH and 619.6 mg of NaCl into a 100-mL volumetric flask. A volume of purified water was added to the flask and the resulting mixture was sonicated until the solids had dissolved. A second volume of purified water was added to the flask to adjust the pH to 6.5. The solution was diluted with another volume of purified water, mixed, and the pH value was measured to be 6.54. The FaSSIF media was prepared by weighing 110.4 mg of SIF powder into a 50-mL volumetric flask to which a volume of FaSSIF dissolving buffer was added. The resulting mixture was sonicated until the SIF powder dissolved. Then mixture was then diluted to volume with FaSSIF dissolving buffer and mixed well. The FaSSIF solution was equilibrated for 2 hours at room temperature before it was used.
A FeSSIF dissolving buffer was prepared by weighing 0.82 mL of glacial acetic acid, 404.9 mg of NaOH and 1188.2 mg of NaCl into a 100-mL volumetric flask. A volume of purified water was added to the flask and the mixture was sonicated until the solids were dissolved. A second volume of purified water was added to the target volume to adjust the pH to 5.0. The solution was diluted with a volume of purified water, mixed well the pH value was measured to be 4.96. FeSSIF media was prepared by weighing 559.6 mg of SIF powder into a 50-mL volumetric flask. A volume of FeSSIF dissolving buffer was added to the flask and the resulting mixture was sonicated the SIF powder was dissolved. A second volume FeSSIF dissolving buffer was added and the resulting mixture was mixed well. The FeSSIF solution was equilibrated for 2 hours to room temperature before use.
An Agilent 1260 high performance liquid chromatography (HPLC) instrument equipped with a DAD detector, a Waters H-Class UPLC with PDA detector was used in the solubility measurements using the conditions set forth in Table 6.
About 10 mg of a gentisate Form 2 of Compound 1 (calculated by weight of the free base of Compound 1) was placed into a 3 mL glass vial and 1 mL of the respective media (water, SGF, FaSSIF and FeSSIF) was added into each glass vial. A cap was placed on each of the vials and they were rolled at 37 °C (25 rpm) for 4 hours. The suspension was then extracted into a centrifugation tube prior to centrifugation (10000 rpm, 37 °C, 5 min) and filtration (0.22 μm PTFE membrane). The resulting supernatant was analyzed by HPLC and the pH was determined. The solubility of the polymorphic form of a gentisate Form 2 of Compound 1 measured was as set forth above was as set forth in Table 7.

Data set [2] in a line: Stability of Form 2 of a gentisate form of Compound 1 under storage conditions (reverse-phase HPLC impurities, XRPD). The class given is physicochemical. To be noted: for Total impurities present: reverse-phase HPLC. As to the method:
To measure stability of the Form 2 of a gentisate form of Compound 1 under storage conditions, samples of Form 2 of a gentisate form of Compound 1 were placed in double low-density polyethylene bags with desiccant between the bags and each was placed into a high-density polyethylene drum. One drum was stored at a temperature of 5 °C and samples of the material were taken at 1 month and 3 months, and the samples were analyzed for the presence of impurities. The other drum was stored at a temperature of 25 °C and at 60% relative humidity (RH), samples of the materials were taken at 1 month and 3 months, and the samples were analyzed for the presence of impurities. The amount of the Form 2 of a gentisate form of Compound 1, and the amount ofany impurities, in each sample was measured by reverse-phase high performance liquid chromatography using the test conditions set and solvent gradients forth in Table 13 and Table 14. The samples were tested to determine the amount remaining of Form 2 at each time point, and the measurements were conducted by x-ray powder diffraction (XRPD) according to USP <941>.

Setting [3] is: storage 5 °C, initial (time = zero).
The mark [4] stands for this setting: storage 25 °C and 60% RH, 1 month.
[5] abbreviates: storage 25 °C and 60% RH, 3 months.
The mark [6] stands for this setting: storage 25 °C and 60% RH, initial (time = zero).

Structures are written as SMILES. In brackets after ≈: the same amount, converted by molar mass. Where two headings read alike, the source gives them in different places.

A word on the solubility: it is the dissolved amount per volume that the medium holds.

On to `O=P(O)(O)[C@@](CO)(COCc1nn[nH]n1)OC[C@H]1O[C@@H](n2ncc3c(NC4CCCC4)nc(Cl)nc32)[C@H](O)[C@@H]1O` [Form 2 of a gentisate form of Compound 1], for which the “pH (of supernatant)” value is 2.5 in data set [1] (fasted-state simulated intestinal fluid (FaSSIF)), 4.4 in data set [1] (fed-state simulated intestinal fluid (FeSSIF)), 1.7 in data set [1] (simulated gastric fluid (SGF)) and 1.7 in data set [1] (water). The solubility at 4 h in data set [1] (fasted-state simulated intestinal fluid (FaSSIF), pH 2.5, read-out: Solubility (calculated as the amount of free base of Compound 1)) is above 10.2 mg/mL; in data set [1] (fed-state simulated intestinal fluid (FeSSIF), pH 4.4, read-out: Solubility (calculated as the amount of free base of Compound 1)), above 9.42 mg/mL; in data set [1] (simulated gastric fluid (SGF), pH 1.7, read-out: Solubility (calculated as the amount of free base of Compound 1)) it was above 9.71 mg/mL; in data set [1] (water, pH 1.7, read-out: Solubility (calculated as the amount of free base of Compound 1)), 26.2 mg/mL (≈ 43.2 mM). Further, the XRPD result is given as “Crystalline” in data set [2] (storage 5 °C, 1 month); “Crystalline” in data set [2] (storage 5 °C, 3 months); “Crystalline” in data set [2] (setting [3]); “Crystalline” in data set [2] (setting [4]); “Crystalline” in data set [2] (setting [5]); “Crystalline” in data set [2] (setting [6]). Moreover, the Total impurities present in data set [2] (storage 5 °C, 1 month) stood at 4.5 % area; in data set [2] (storage 5 °C, 3 months) it was 4.2 % area; in data set [2] (setting [3]), 4.4 % area; in data set [2] (setting [4]), 4.5 % area; in data set [2] (setting [5]), 4.3 % area; in data set [2] (setting [6]), 4.4 % area. The Stability result in data set [2] (stored at 5 °C) is on record as “stable up to 3 months”; in data set [2] (stored at 25 °C and at 60% RH), “stable up to 3 months”.

Source of the values: US20260335348A1, “PHARMACEUTICAL FORMS OF A CD73 INHIBITOR” (ORIC Pharmaceuticals, Inc., priority 2022, published 2026).
